Measured values taken from patent US20210252032A1, “DRUGS FOR GRP78 CELL SURFACE TRANSLOCATION AND PAR-4 SECRETION” (University of Kentucky Research Foundation, priority 2020, published 2021).
Entries after “also recorded” stand apart in the source; their conditions may differ.

Columns and labels:
[1] = system: LLC1-derived lung tumor nodules; conditions: CQ in conjunction with CZT, relative to CZT or CQ administered separately; cited from earlier work
epithelial BEAS2B cells = assay: GRP78 cell surface expression in normal BEAS2B cells (FIG. 1); assay type: cell-based
Text: (§1) To maximize the apoptotic effect of secreted Par-4 on lung tumors, the second active agent is effective to elevate GRP78 on the surface of cancer cells and thereby complements the apoptotic action of secreted Par-4. […] Approximately 5% of patients with non-small cell lung cancer (NSCLC) have tumors that contain an inversion in chromosome 2 that juxtaposes the 5′ end of the echinoderm microtubule-associated protein-like 4 (EML4) gene with the 3′ end of the ALK gene. This juxtaposition results in the fusion oncogene called EML4-ALK. ALK+ tumors are highly sensitive to therapy with ALKtargeted inhibitors. […] On the other hand, phosphorylation of SRC at tyrosine 530 (Y530) by C-terminal SRC kinase (Csk) and Csk homologous kinase results in inactivation of SRC.

[2] = system: p53-deficient KP7B lung tumor cells; assay: GRP78 cell surface expression in KP7B lung tumor cells (FIG. 1); assay type: cell-based
Text: as §1

[3] = system: normal lung fibroblast HEL cells; assay: GRP78 cell surface expression in normal HEL cells (FIG. 1); assay type: cell-based
Text: as §1

cancer cells = assay: Cell surface expression of GRP78 in cancer cells (FIG. 1 legend); assay type: cell-based
lung cancer cells [4] = conditions: previous studies (background); cited from earlier work
lung cancer cells [5] = assay: GRP78 cell surface translocation in lung cancer cells (FIG. 2); assay type: cell-based; conditions: nanomolar concentrations
Text: as §1

[6] = system: tyrosine-protein kinase SRC; assay: SRC activation (FIG. 3); assay type: cell-based; conditions: lung cancer cells
Text: Dephosphorylation of Y530 by phosphatases results in autophosphorylation of SRC at Y419, leading to activation. SRC activation triggers a signaling cascade that prevents retrograde trafficking of proteins from the Golgi to the ER and promotes GRP78 translocation from the Golgi to the cell surface.

normal cells = assay: Par-4 secretion from normal cells; assay type: cell-based; conditions: levels relative to those achieved previously with chloroquine

With `CCN(CC)CCCC(C)Nc1ccnc2cc(Cl)ccc12` (stereo not drawn) [CQ, chloroquine] as the compound, how does the “inhibition of LLC1-derived lung tumor nodules” value [1] read?
Its value is “significantly greater inhibition”.

With `C[C@@H](Oc1cc(-c2cnn(C3CCNCC3)c2)cnc1N)c1c(Cl)ccc(F)c1Cl` [CZT, Crizotinib] as the compound, how does the “Par-4 receptor GRP78 on the cell surface” value (epithelial BEAS2B cells) read?
Its value is “not”.

And the “Par-4 receptor GRP78 on the cell surface” value [2]?
The value was “elevated”.

What about the “Par-4 receptor GRP78 on the cell surface” value [3] of the same compound?
Its value is “not”.

What about the “cell surface expression of GRP78 in cancer cells” value (cancer cells) of the same compound?
Its value is “induces”.

And the “Par-4 receptor GRP78 levels on lung cancer cells” value (lung cancer cells [4])?
The value was “inducer”.

Which “GRP78 cell surface translocation” value (lung cancer cells [5]) does the source give for `COCCn1c2c([n+](Cc3cnccn3)c1C)C(=O)c1ccccc1C2=O` [YM155] here?
Its value is “induce cell surface expression of GRP78; also recorded: induced GRP78 cell surface translocation”.

Which “activation of SRC” value [6] does the source give for `CCc1cc2c(cc1N1CCC(N3CCOCC3)CC1)C(C)(C)c1[nH]c3cc(C#N)ccc3c1C2=O` [alectinib] here?
Its value is “cause the activation of SRC”.

Which “GRP78 cell surface translocation” value (lung cancer cells [5]) does the source give for `COc1cc(Nc2ncc3c(n2)-c2ccc(Cl)cc2C(c2c(F)cccc2OC)=NC3)ccc1C(=O)O` [alisertib] here?
The value was “induce cell surface expression of GRP78; also recorded: induced GRP78 cell surface translocation”.

Which “Par-4 secretion from normal cells” value (normal cells) does the source give for `COc1cccc2c1C(=O)c1c(O)c3c(c(O)c1C2=O)C[C@@](O)(C(=O)CO)C[C@@H]3O[C@H]1C[C@H](N)[C@H](O)[C@H](C)O1` [doxorubicin] here?
The value was “comparable to, or higher than”.

For `COc1cc([C@@H]2c3cc4c(cc3[C@@H](O[C@@H]3O[C@@H]5CO[C@@H](C)O[C@H]5[C@H](O)[C@H]3O)[C@H]3COC(=O)[C@H]23)OCO4)cc(OC)c1O` [etoposide], which “Par-4 secretion from normal cells” value (normal cells) is on record?
Its value is “comparable to, or higher than”.

For `CCc1c2c(nc3ccc(OC(=O)N4CCC(N5CCCCC5)CC4)cc13)-c1cc3c(c(=O)n1C2)COC(=O)[C@]3(O)CC` [irinotecan], which “Par-4 secretion from normal cells” value (normal cells) is on record?
The value was “comparable to, or higher than”.
